Experimental data as given in patent publication US12527770B2 (Teikoku Pharma USA, Inc., priority 2016, dated 2026).
Like-named read-outs stand apart in the source and are kept apart here.

Assays:
[1] = tested on: patients after Austin bunionectomy surgery; settings: for use of rescue medication (oxycodone), Mean (SD): n = 43
Protocol: Each transdermal delivery device was applied to the subject between 10 hours and 14 hours before each patient underwent Austin bunionectomy surgery with standard intraoperative anesthesia.
Pain was evaluated in patients at times from immediately after surgery through 72 hours after surgery using the Pain Intensity Numeric Rating Scale (NRS) and Summed Pain Intensity (NRSSPI). Pain was also evaluated based on the time and first use of rescue pain medication as well as total use of rescue medication.

Question: With `Cc1cccc([C@H](C)c2cnc[nH]2)c1C` [Dexmedetomidine] as the compound, how does the “use of rescue medication (oxycodone), Mean (SD)” value (shortened to “use of rescue medication … (SD)”) ([1]; 0 to 24 Hours after Surgery) read?
Answer: 23.5 (11.98)

Question: What about the “use of rescue medication … (SD)” value ([1]; 0 to 48 Hours after Surgery) of the same compound?
Answer: 37.5 (22.74)

Question: And the “use of rescue medication … (SD)” value ([1]; 0 to 72 Hours after Surgery)?
Answer: 46.4 (30.80)

Question: What about the “proportion of patients requesting rescue medication” value ([1]; first six hours after surgery, vs placebo) of the same compound?
Answer: lower proportion

Question: What about the “pain intensity difference between dexmedetomidine and placebo” value ([1]; over a 4-fold mean plasma dexmedetomidine concentration range) of the same compound?
Answer: constant

Question: What about the “pain rating (Numerical Rating Scale) compared to placebo” value ([1]; through 72 hours after surgery, 2×3 cm^2 patch) of the same compound?
Answer: lower pain rating

Question: And the “frequency of requests for rescue medication” value ([1]; vs placebo)?
Answer: less frequently

Question: And the solubility of dexmedetomidine (in Duro-Tak 87-2979)?
Answer: less than 2%

Question: What about the solubility of dexmedetomidine (in Duro-Tak 387/87-2353) of the same compound?
Answer: 10-15%

Question: And the solubility of dexmedetomidine (in hydroxyl functionalized acrylate polymer)?
Answer: less than 1%

Question: What about the solubility of dexmedetomidine (in levulinic acid) of the same compound?
Answer: ~60%

Question: And the solubility of dexmedetomidine (in oleic acid)?
Answer: ~40%
